Assay results taken from patent EP0421419A2, “Tocotrienols in the treatment of hypercholesterolemia, hyperlipidemia and thromboembolic disorders” (Bristol-Myers Squibb Company, priority 1989, dated 1991).
Values after ≈ are worked out from the molar mass of the structure shown. Where two headings read alike, the source gives them in different places.

How the values were obtained:
[1] = tested on: Cholesterol Synthesis in HepG2 Cells; test: HepG2 cell culture model, 14C-acetate incorporation assay; format: cell-based, human; details: for % Inhibition 14C-Ac / inhibition at 10 µM: 10 µM, about 4 hours; for inhibition at 10 µM: read-out: % Inhibition 14C-Ac; for Rel. Potency: γ-Tocotrienol = 1.0; for IC50: read-out: IC₅₀
Procedure: HepG2 cells obtained from the American Type Culture Collection were routinely passaged in RPMI-1640 plus 10% fetal bovine serum (FBS) and were subcultured into 35 mm diameter wells for experiments. […] The LDS medium supplement was prepared according to Cham et al., J. Lipid Res., 17: 176-181, (1976). After about 16 hours in LDS containing media, test compounds were added in dimetthylsulfoxide vehicle (0.5% v/v final conc.) for the period of time indicated in the data (generally 4 hours). Cholesterol synthesis was then directly determined by the incorporation of 2-14C-acetate (1.8-3.0 mCi/mmol) into digitonin-precipitable sterols essentially as described for the rat hepatocyte methol above. Greater than 97% of the radiolabelled sterol isolated by this procedure was cholesterol as judged by HPLC. Percent inhibition was calculated from the average of duplicates or triplicates vs. controls receiving vehicle.
(§1) The human hepatoma HepG2 cell culture model was employed to compare the intrinsic activities of the tocotrienols. HepG2 cells were incubated with the indicated compounds for about 4 hours at 10 µM. Cholestrol synthesis was assayed by 14C-acetate incorporation and HMG-CoA reductase suppression was assayed in the isolated microsomal fraction. Cholesterol synthesis inhibition was assayed by 14C-acetate incorporation after preincubation of HepG2 cells with the compounds for about 2 hours or about 4 hours (Example IV). […] As the data in Figure 1 indicate, gamma-tocotrienol has an even greater relative potency compared to alpha-tocotrienol in the HepG2 cell model than in rat hepatocytes. The IC50s from these studies are given in Table 3, in which it can be seen that the intrinsic potency of gamma-tocotrienol is over 30-fold greater than that of alpha-tocotrienol.

HMG-CoA reductase = test: HepG2 cell culture model, HMG-CoA reductase suppression assay; format: cell-based, human; details: 10 µM, about 4 hours, HepG2 cells
Procedure: HMG-CoA reductase suppression in HepG2 cells was conducted by growing cells in RPMT-1640 plus 10% FBS on 100 mm plates, and when cells reached approximately 75% confluency, inducing with LDS (as described above) for about 16 hours prior to assays. Compounds were added using dimethylsulfoxide vehicle (0.5% v/v, final) and after about 4 hours of incubation at 37°, cells were harvested by scraping. Cell pellets were rinsed and lysed by sonication in 1.7 ml cold 50 mM imidazole-HCL, pH 7.2, 50 mM NaCl, 10 mM EDTA, 10 mM EGTA, 5 mM DTT, and 40µM leupeptin). Lysates were centriguged at 150 x g and the supernatant was centrifuged at 100,000 x g in a Beckman airfuge to isolate the post-nuclear total membrane fraction. The membranes were resuspended in 50 mM imidazole-HCl, pH 7.2, 250 mM NaCl, 5 mM DTT, and 20µM leupeptin and used for the assay of HMG-CoA reductase activity by the radiochemical procedure as described previously by Parker et al., J. Biol. Chem., 264: 4877-4887, (1989). Values were normalized for protein content by the Lowry method as cited previously (ibid). HMG-CoA reductase percent suppression was calculated as the decrease in specific activity of HMG-CoA reductase for treated cells vs. controls receiving vehicle. Averages of duplicate cell determinations assayed in duplicate were taken.
as §1
The mechanism of cholesterol synthesis inhibition by tocotrienols involves down regulation of the limiting enzyme of sterol synthesis, HMG-CoA reductase. […] The suppression of HMG-CoA reductase protein expression by gamma-tocotrienol and delta-tocotrienol in HepG2 cells and in rat liver has been confirmed by immunoassy using the Western blot technique (data not shown).

Hepatic HMGCoA Reductase = test: Acute rat HMGCoA reductase suppression model; format: in vivo; details: four hours after administration; for Hepatic HMGCoA Reductase Activity (mean ± SEM): 195 µmol/kg (equivalent to 80 mg/kg Example 24) intragastric in olive oil, vehicle control 479 ± 88; for Hepatic HMGCoA Reductase Activity % of Control: 195 µmol/kg intragastric in olive oil
Procedure: Using an acute rate model for suppression of hepatic HMGCoA reductase, the effectiveness of three forms of d,l-γ-tocotrienol were compared in vivo. In this assay system, the test agents were administered by intragastric intubation as solutions dissolved in olive oil vehicle. Four hours after administration of test agents, rat liver HMGCoA reductase total activity levels were determined by standard techniques in this laboratory. […]

Lipid Metabolism = test: Lipid metabolism in normocholesterolemic chickens fed compound in diet; format: in vivo; details: CCD + 20 ppm per head (text: 50 ppm)
[2] = tested on: Cholesterol Synthesis in Isolated Rat Hepatocytes; test: Rat hepatocyte cholesterol biosynthesis model (14C-acetate incorporation into digitonin-precipitable sterols); format: cell-based; details: for inhibition at 210 µg/mL: 210 µg/ml (approx. 500 µM), 60 min 14C-acetate incorporation, 0.2% Tween-80; for inhibition at 250 µg/mL: read-out: % Inhibition at µg/ml conc: 250; for inhibition at 500 µg/mL: read-out: % Inhibition at µg/ml conc: 500; for IC50: read-out: IC₅₀
Procedure: Primary rat parenchymal hepatocytes were prepared from male Wistar rats (180-220 g) at mid-dark in the diurnal cycle by standard collagenase perfusion method as described previously. Ingebritsen et al. J. Biol. Chem., 254: 9986-9989, (1979). Aliquots of cells were suspended (100 mg in 2 ml) in Eagle's minimum essential medium (MEM) supplemented with 2% bovine albumin, and preincubated in a shaking water bath at about 37° under 95% O₂/5% CO₂ with compounds added as given in the data. […] Following a preincubation of about 15 to about 45 minutes as indicated, cholesterol synthesis in intact cells was assayed by 2-14C-acetate (1.8 mCi/mmol, 0.5 µCi/ml) incorporation for about 30 to about 60 minutes (previously shown to be time-linear) into total digitonin-precipitable sterols. […] Percent inhibition was calculated from the average of duplicates vs. triplicate vehicle controls conducted simultaneously.
The primary rat hepatocyte assay for cholesterol bio-synthesis inhibition was conducted as described in Example 2 except the preincubation was about 45 minutes and the 14C-acetate incorporation was about 30 minutes. The indicated compounds were purified from the same natural product source as the mixture used in Example 2. […] Two-component mixtures of the constituents separated from the tocotrienol mixture were tested under the conditions indentical to Table 2A.

platelet aggregation = test: Rabbit biolaser ear chamber antithrombotic model; format: in vivo; details: 100mg/kg oral
Procedure: The antithrombotic properties of gamma-tocotrienol were evaluated in a rabbit biolaser ear chamber model. Fasted rabbits were orally dosed with either vehicle or vehicle plus gamma-tocotrienol at 100mg/kg. An erythrocyte contained within a capillary, near the ear surface, is ruptured with a laser shot, thereby releasing platelet aggregating ADP. gamma-Tocotrienol inhibited platelet aggregation 37% at about 2 hours after oral dosing, 44% after about 4 hours and 25% after about 6 hours as measured by averaging the mean thrombus area over 10 trials.

[3] = Pure gamma-tocotrienol capsules in hypercholesterolemic human subjects; format: in vivo; details: capsules 50 mg/capsule, after 4 weeks of feeding; serum cholesterol levels 302.5 mg/dl
[4] = Rattus norvegicus, Hepatocyte, 15 min preincubation
[5] = Rattus norvegicus, Hepatocyte, Expt. # 1, 45 min preincubation, 30 min incorporation
[6] = Rattus norvegicus, Hepatocyte, Expt. # 2, 45 min preincubation, 30 min incorporation

3,4-dihydro-2-methyl-2-(4,8,12-trimethyltrideca-3(E),7(E),11-trienyl)-2H-1-benzopyran-6-ol [d,1-Tocotrienol]
% Inhibition 14C-Ac [1]: 69% | % Suppression HMG-CoA Reductase (HMG-CoA reductase): 62%

CC(C)=CCC/C(C)=C/CC/C(C)=C/CCC1(C)CCc2cc(O)c(C)c(C)c2O1 (racemic) [Ex. 24, 3,4-dihydro-2,7,8-trimethyl-2-(4,8,12-trimethyltrideca-3(E),7(E),11-trienyl)-2H-1-benzopyran-6-ol]
inhibition at 10 µM ([1]; Homo sapiens, HepG2): 75% | % Suppression HMG-CoA Reductase (HMG-CoA reductase): 65% | Hepatic HMGCoA Reductase Activity (mean ± SEM) (Hepatic HMGCoA Reductase): 266 ± 24 mU/mg | Hepatic HMGCoA Reductase Activity % of Control (Hepatic HMGCoA Reductase): 56% | Serum Cholesterol (Lipid Metabolism; Table 6, synthetic compound, 4 weeks, control 158.8(±9.0)): 121.2(±2.2) mg/dl | HDL-Cholesterol [% of Control] (Lipid Metabolism; Table 6): 87.0% | LDL-Cholesterol [% of Control] (Lipid Metabolism; Table 6): 54.8% | Serum Cholesterol [% of Control] (Lipid Metabolism; Table 6): 76.3% | Serum Triglycerides [% of Control] (Lipid Metabolism; Table 6): 100.7% | HDL/LDL (Lipid Metabolism; Table 6, control 1.938): 3.080 | LDL-Cholesterol (Lipid Metabolism; Table 6, control 52.8 (±1.1)): 28.9(±1.2) mg/dl | Serum Triglycerides (Lipid Metabolism; Table 6, control 63.4(±2.1)): 63.9(±1.6) mg/dl | HDL-Cholesterol (Lipid Metabolism; Table 6, control 102.3(±3.0)): 89.0(±2.9) mg/dl

CC(=O)Oc1cc2c(c(C)c1C)OC(C)(CC/C=C(\C)CC/C=C(\C)CCC=C(C)C)CC2 (racemic) [Ex. 33, 3,4-Dihydro-2,7,8-Trimethyl-2-(4,8,12-Trimethyltrideca-3(E),7(E), 11-trienyl)-2H-1-Benzopyran-6-Yl Acetate]
Hepatic HMGCoA Reductase Activity (mean ± SEM) (Hepatic HMGCoA Reductase): 236 ± 23 mU/mg | Hepatic HMGCoA Reductase Activity % of Control (Hepatic HMGCoA Reductase): 49%

CC(C)=CCC/C(C)=C/CC/C(C)=C/CCC1(C)CCc2cc(OC(=O)c3cccnc3)c(C)c(C)c2O1 (racemic) [Ex. 34, 3,4-Dihydro-2,7,8-Trimethyl-2-(4,8,12-Trimethyl 3(E), 7(E),11-tridecatrienyl)-2H-1 Benzopyran-6-Yl-3-Pyridine Carboxylate]
Hepatic HMGCoA Reductase Activity (mean ± SEM) (Hepatic HMGCoA Reductase): 156 ± 21 mU/mg | Hepatic HMGCoA Reductase Activity % of Control (Hepatic HMGCoA Reductase): 33%

CC(C)=CCC/C(C)=C/CC/C(C)=C/CCC1(C)CCc2c(C)c(O)c(C)c(C)c2O1 (racemic) [d,1-α-tocotrienol, 3,4-dihydro-2,5,7,8-tetramethyl-2-(4,8,12-trimethyltrideca-3(E),7(E),11-trienyl)-2H-1-benzopyran-6-ol, reference compound]
inhibition at 41 µg/mL ([2]; Rattus norvegicus, Hepatocyte, 41 µg/ml (approx. 100 µM), 15 min preincubation, 60 min incorporation): 4% | inhibition at 210 µg/mL [2, 4]: 17% | inhibition at 10 µM ([1]; Homo sapiens, HepG2): 20% | % Suppression HMG-CoA Reductase (HMG-CoA reductase): 19%

Cc1c(C)c2c(c(C)c1O)CC[C@@](C)(CCC[C@H](C)CCC[C@H](C)CCCC(C)C)O2 [d-α-tocopherol, reference compound]
IC₅₀ ([2]; Expt. # 1, 45 min preincubation, 30 min incorporation): no inhib | inhibition at 210 µg/mL [2, 4]: 0% | inhibition at 250 µg/mL [2, 5]: 0% | inhibition at 250 µg/mL [2, 6]: 0% | inhibition at 500 µg/mL [2, 5]: 2% | inhibition at 500 µg/mL [2, 6]: 0%

CC(C)=CCC/C(C)=C/CC/C(C)=C/CC[C@]1(C)CCc2c(C)c(O)c(C)c(C)c2O1 [d-α-tocotrienol, reference compound]
inhibition at 125 µg/mL ([2]; Rattus norvegicus, Hepatocyte, 125 µg/ml, Expt. # 2, 45 min preincubation, 30 min incorporation, read-out: % Inhibition at µg/ml conc: 125): 8% | inhibition at 250 µg/mL [2, 5]: 8% | inhibition at 250 µg/mL [2, 6]: 20% | inhibition at 500 µg/mL [2, 5]: 12% | inhibition at 500 µg/mL [2, 6]: 33% | IC50 [2, 5]: > 1000 µg/mL | IC50 [2, 6]: 1300 µg/mL (≈ 3.06 mM)

CC(C)=CCC/C(C)=C/CC/C(C)=C/CCC1(C)CCc2cc(O)c(C)c(C)c2O1 (stereo not shown) [γ-Tocotrienol]
times more active than alpha-tocotrienol ([2]; rat and chicken hepatocyte system): at least 5 times | Rel. Potency ([1]; 2 hr. Incubation): 1.0 | Rel. Potency ([1]; 4 hr. Incubation): 1.0 | IC50 ([1]; Homo sapiens, HepG2, 2 hr. Incubation): 5.9 µM | IC50 ([1]; Homo sapiens, HepG2, 4 hr. Incubation): 2.8 µM | intrinsic potency greater than that of alpha-tocotrienol ([1]; from IC50s of Table 3): over 30 fold | inhibited platelet aggregation (platelet aggregation; about 2 hours after dosing, mean thrombus area over 10 trials): 37% | inhibited platelet aggregation (platelet aggregation; about 4 hours after dosing): 44% | inhibited platelet aggregation (platelet aggregation; about 6 hours after dosing): 25% | decrease in serum cholesterol levels [3]: 35%

α-Tocotrienol [reference compound]
IC50 ([1]; 2 hr. Incubation): 380 µM | Rel. Potency ([1]; 2 hr. Incubation): 0.02 | IC50 ([1]; 4 hr. Incubation): 94 µM | Rel. Potency ([1]; 4 hr. Incubation): 0.03

γ-Tocopherol [reference compound]
% Inhibition 14C-Ac [1]: 3% | % Suppression HMG-CoA Reductase (HMG-CoA reductase): 0%
